# Assay results taken from PubChem BioAssay (NCI).
#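 Step 1: Grow cells in 96-well plates. Step 2: Expose to compound for 48 hours at 5 concentrations. Step 3: Interpolate endpoints linearly; if unreached, use highest concentration. TGI is the concentration that stops growth completely.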
# Legend:
# Experiment in all cases: NCI tumour cell line growth inhibition, 48 h
# KM12 colon = test system: KM12 colon
# SK-MEL-5 melanoma = test system: SK-MEL-5 melanoma
# MDA-MB-435 = test system: MDA-MB-435
# MALME-3M melanoma = test system: MALME-3M melanoma
# EKVX NSCLC = test system: EKVX NSCLC
# SR leukemia = test system: SR leukemia
# A498 renal = test system: A498 renal
# HCC-2998 colon = test system: HCC-2998 colon
# IGROV1 ovarian = test system: IGROV1 ovarian
# COLO 205 colon = test system: COLO 205 colon
# A549 NSCLC = test system: A549 NSCLC
# SF-295 CNS = test system: SF-295 CNS
# RPMI-8226 leukemia = test system: RPMI-8226 leukemia
# T-47D breast = test system: T-47D breast
# UO-31 renal = test system: UO-31 renal
# HS 578T breast = test system: HS 578T breast
# OVCAR-4 ovarian = test system: OVCAR-4 ovarian
# NCI-H23 lung = test system: NCI-H23 lung
# SN12C renal = test system: SN12C renal
# M14 melanoma = test system: M14 melanoma
# SK-OV-3 ovarian = test system: SK-OV-3 ovarian
# HL-60(TB) leukemia = test system: HL-60(TB) leukemia
# NCI-H226 lung = test system: NCI-H226 lung
# MOLT-4 leukemia = test system: MOLT-4 leukemia
# HOP-92 NSCLC = test system: HOP-92 NSCLC
# HT29 colon = test system: HT29 colon
# SF-268 CNS = test system: SF-268 CNS
# ACHN renal = test system: ACHN renal
# MCF7 breast = test system: MCF7 breast
# CCRF-CEM leukemia = test system: CCRF-CEM leukemia
# TK-10 renal = test system: TK-10 renal
# SW-620 colon = test system: SW-620 colon
# OVCAR-8 ovarian = test system: OVCAR-8 ovarian
# HCT-116 colon = test system: HCT-116 colon
# MDA-MB-231 breast = test system: MDA-MB-231 breast
# UACC-257 melanoma = test system: UACC-257 melanoma
# NCI/ADR-RES ovarian = test system: NCI/ADR-RES ovarian
# OVCAR-5 ovarian = test system: OVCAR-5 ovarian
# RXF 393 renal = test system: RXF 393 renal
# DU-145 prostate = test system: DU-145 prostate
# 786-0 renal = test system: 786-0 renal
# SNB-19 CNS = test system: SNB-19 CNS
# NCI-H460 lung = test system: NCI-H460 lung
# SF-539 CNS = test system: SF-539 CNS
# HOP-62 NSCLC = test system: HOP-62 NSCLC
# SK-MEL-28 melanoma = test system: SK-MEL-28 melanoma
# UACC-62 melanoma = test system: UACC-62 melanoma
# LOX IMVI melanoma = test system: LOX IMVI melanoma
# U251 CNS = test system: U251 CNS
# SNB-75 CNS = test system: SNB-75 CNS
# HCT-15 colon = test system: HCT-15 colon
# PC-3 prostate = test system: PC-3 prostate
# BT-549 breast = test system: BT-549 breast
# OVCAR-3 ovarian = test system: OVCAR-3 ovarian
# K-562 leukemia = test system: K-562 leukemia
# CAKI-1 renal = test system: CAKI-1 renal
# NCI-H522 lung = test system: NCI-H522 lung
# SK-MEL-2 melanoma = test system: SK-MEL-2 melanoma
compound,measurement,setting,value
O=C1NCC2(CCNCC2)N1,TGI,KM12 colon,> 100 µM
same,TGI,SK-MEL-5 melanoma,> 100 µM
same,TGI,MDA-MB-435,> 100 µM
same,TGI,MALME-3M melanoma,> 100 µM
same,TGI,EKVX NSCLC,> 100 µM
same,TGI,SR leukemia,> 100 µM
same,TGI,A498 renal,> 100 µM
same,TGI,HCC-2998 colon,> 100 µM
same,TGI,IGROV1 ovarian,> 100 µM
same,TGI,COLO 205 colon,> 100 µM
same,TGI,A549 NSCLC,> 100 µM
same,TGI,SF-295 CNS,> 100 µM
same,TGI,RPMI-8226 leukemia,> 100 µM
same,TGI,T-47D breast,> 100 µM
same,TGI,UO-31 renal,> 100 µM
same,TGI,HS 578T breast,> 100 µM
same,TGI,OVCAR-4 ovarian,> 100 µM
same,TGI,NCI-H23 lung,> 100 µM
same,TGI,SN12C renal,> 100 µM
same,TGI,M14 melanoma,> 100 µM
same,TGI,SK-OV-3 ovarian,> 100 µM
same,TGI,HL-60(TB) leukemia,> 100 µM
same,TGI,NCI-H226 lung,> 100 µM
same,TGI,MOLT-4 leukemia,> 100 µM
same,TGI,HOP-92 NSCLC,> 100 µM
same,TGI,HT29 colon,> 100 µM
same,TGI,SF-268 CNS,> 100 µM
same,TGI,ACHN renal,> 100 µM
same,TGI,MCF7 breast,> 100 µM
same,TGI,CCRF-CEM leukemia,> 100 µM
same,TGI,TK-10 renal,> 100 µM
same,TGI,SW-620 colon,> 100 µM
same,TGI,OVCAR-8 ovarian,> 100 µM
same,TGI,HCT-116 colon,> 100 µM
same,TGI,MDA-MB-231 breast,> 100 µM
same,TGI,UACC-257 melanoma,> 100 µM
same,TGI,NCI/ADR-RES ovarian,> 100 µM
same,TGI,OVCAR-5 ovarian,> 100 µM
same,TGI,RXF 393 renal,> 100 µM
same,TGI,DU-145 prostate,> 100 µM
same,TGI,786-0 renal,> 100 µM
same,TGI,SNB-19 CNS,> 100 µM
same,TGI,NCI-H460 lung,> 100 µM
same,TGI,SF-539 CNS,> 100 µM
same,TGI,HOP-62 NSCLC,> 100 µM
same,TGI,SK-MEL-28 melanoma,> 100 µM
same,TGI,UACC-62 melanoma,> 100 µM
same,TGI,LOX IMVI melanoma,> 100 µM
same,TGI,U251 CNS,> 100 µM
same,TGI,SNB-75 CNS,> 100 µM
same,TGI,HCT-15 colon,> 100 µM
N#CC1C(=O)NC2=C(CCOc3c2ccc2ccccc32)C1c1ccc(F)cc1 (stereo unspecified),TGI,KM12 colon,> 100 µM
same,TGI,SK-MEL-5 melanoma,80.8 µM
same,TGI,MDA-MB-435,> 100 µM
same,TGI,PC-3 prostate,54.8 µM
same,TGI,MALME-3M melanoma,79 µM
same,TGI,EKVX NSCLC,> 100 µM
same,TGI,BT-549 breast,> 100 µM
same,TGI,A498 renal,44.1 µM
same,TGI,HCC-2998 colon,59.9 µM
same,TGI,IGROV1 ovarian,37.9 µM
same,TGI,COLO 205 colon,> 100 µM
same,TGI,A549 NSCLC,> 100 µM
same,TGI,OVCAR-3 ovarian,40.7 µM
same,TGI,SF-295 CNS,42.4 µM
same,TGI,T-47D breast,99.5 µM
same,TGI,UO-31 renal,24.7 µM
same,TGI,HS 578T breast,43.8 µM
same,TGI,OVCAR-4 ovarian,> 100 µM
same,TGI,NCI-H23 lung,74 µM
same,TGI,SN12C renal,27.3 µM
same,TGI,M14 melanoma,68 µM
same,TGI,SK-OV-3 ovarian,55 µM
same,TGI,HL-60(TB) leukemia,> 100 µM
same,TGI,MOLT-4 leukemia,> 100 µM
same,TGI,HOP-92 NSCLC,28.5 µM
same,TGI,SF-268 CNS,88.8 µM
same,TGI,ACHN renal,26.1 µM
same,TGI,MCF7 breast,> 100 µM
same,TGI,CCRF-CEM leukemia,> 100 µM
same,TGI,TK-10 renal,43.2 µM
same,TGI,SW-620 colon,> 100 µM
same,TGI,OVCAR-8 ovarian,> 100 µM
same,TGI,HCT-116 colon,27 µM
same,TGI,K-562 leukemia,> 100 µM
same,TGI,UACC-257 melanoma,> 100 µM
same,TGI,NCI/ADR-RES ovarian,43.8 µM
same,TGI,OVCAR-5 ovarian,71.9 µM
same,TGI,RXF 393 renal,36 µM
same,TGI,DU-145 prostate,> 100 µM
same,TGI,786-0 renal,32.8 µM
same,TGI,SNB-19 CNS,52.7 µM
same,TGI,CAKI-1 renal,71.4 µM
same,TGI,NCI-H460 lung,> 100 µM
same,TGI,SF-539 CNS,> 100 µM
same,TGI,NCI-H522 lung,> 100 µM
same,TGI,HOP-62 NSCLC,33.6 µM
same,TGI,SK-MEL-2 melanoma,> 100 µM
same,TGI,U251 CNS,24.7 µM
same,TGI,SNB-75 CNS,54 µM
same,TGI,HCT-15 colon,> 100 µM
